The source of these data is BindingDB's records for doi:10.3109/14756366.2012.750311 (Atatürk University, 2014).

Usually Ki stands for a measure of affinity in units of concentration, obtained from inhibition or displacement. Read a high Ki as a looser hold on the target. For orientation: IC50 means the concentration that gives 50% inhibition. Low readings indicate higher potency, high ones lower potency.

One experiment addresses Carbonic anhydrase 1 (Homo sapiens, UniProt P00915). Description: Hydratase and Esterase Activity Assays. How it is done:
(§1) The effect of novel sulfonamides 28-33 on HCA isozyme activity was determined colorimetrically using CO2-hydration method of Wilbur and Anderson29 described previously [G l in et al., Biol. Pharm. Bull., 27:613-16]. Esterase activity was determined according to the method described by Verpoorte et al [Verpoorte et al., J. Biol. Chem., 242:4221-9].

In a further experiment the target is Carbonic anhydrase 2 (Homo sapiens, UniProt P00918). Description: Hydratase and Esterase Activity Assays. How it is done:
as §1

Carbonic anhydrase 1, sequence (P00915 whole entry): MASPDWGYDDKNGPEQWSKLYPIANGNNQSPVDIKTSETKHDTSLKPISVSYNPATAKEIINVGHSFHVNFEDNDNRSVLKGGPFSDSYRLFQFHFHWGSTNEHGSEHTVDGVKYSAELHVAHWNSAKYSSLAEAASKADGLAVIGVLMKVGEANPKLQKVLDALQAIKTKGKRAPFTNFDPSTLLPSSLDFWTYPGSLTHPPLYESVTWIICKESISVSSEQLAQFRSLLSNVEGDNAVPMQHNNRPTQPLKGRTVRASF

Molecule `CS(=O)(=O)NC1CCc2ccccc2C1` (stereo not given) [N-(1,2,3,4-tetrahydronaphthalene-2-yl)methanesulfonamide (31)] came in with a Ki on Carbonic anhydrase 1 of 228 µM. At Carbonic anhydrase 2, this molecule registered an IC50 of 338 µM and a Ki of 94 µM.

At Carbonic anhydrase 1, `COc1cc2c(cc1OC)CC(NS(C)(=O)=O)C2` [N-(5,6-dimethoxy-2,3-dihydro-1H-inden-2-yl)methanesulfonamide (32)] showed an IC50 of 266 µM and an inhibitory constant (Ki) of 46 µM. At Carbonic anhydrase 2, this molecule came in with a Ki of 372 µM.

At Carbonic anhydrase 1, `COc1cc2c(cc1OC)C(NS(C)(=O)=O)CC2` (stereo not given) [N-(5,6-dimethoxyindane-1-yl)methanesulfonamide (28)] showed a half-inhibitory concentration (IC50) of 487 µM and a Ki of 52 µM. The molecule also had a Ki at Carbonic anhydrase 2 of 215 µM.

As to `COc1cccc2c1CCCC2NS(C)(=O)=O` (stereo not given) [N-(5-metoksi-1,2,3,4-tetrahydronaphthalene-1-yl)methanesulfonamide (30)], the inhibition constant Ki amounted to 185 µM at Carbonic anhydrase 1 and 112 µM at Carbonic anhydrase 2.

Regarding `CS(=O)(=O)NC1CCc2ccccc21` (stereo not given) [N-(Indane-1-yl)methanesulfonamide (29)], the figures for the inhibition constant Ki at Carbonic anhydrase 1 and on Carbonic anhydrase 2 were 173 µM and 211 µM, respectively.

As to `CS(=O)(=O)NC1Cc2ccccc2C1` [N-(Indane-2-yl)methanesulfonamide (33)], the Ki on Carbonic anhydrase 1 came to 104 µM; at Carbonic anhydrase 2, 170 µM.
